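In this assay, cells in 96-well plates receive the compound at five concentrations for 48 hours. Endpoints are linearly interpolated between the surrounding concentrations. The concentration for 50% growth inhibition is given as GI50. TGI marks complete inhibition of growth.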

Test systems include NCI/ADR-RES ovarian; UACC-62 melanoma; MOLT-4 leukemia; MCF7 breast; TK-10 renal; M14 melanoma; K-562 leukemia; SN12C renal; UO-31 renal; T-47D breast.
Holding throughout (assay): inhibition of tumour cell growth, NCI panel, 48 h

As to `O=c1c(-c2nc3ccccc3[nH]2)cc2ccccc2n1Cc1cn(Cc2ccccc2Cl)nn1`, the GI50 was 1.94 µM in the assay with NCI/ADR-RES ovarian; 1.73 µM with UACC-62 melanoma; 2.36 µM in the assay with MOLT-4 leukemia; 1.78 µM with MCF7 breast; 2.52 µM with TK-10 renal; 2.65 µM in the assay with M14 melanoma. In addition, the GI50 with K-562 leukemia was 3.33 µM; in the assay on SN12C renal, 1.87 µM; with UO-31 renal, 1.33 µM; in the assay on T-47D breast, 2.85 µM. Moreover, the TGI in the assay with NCI/ADR-RES ovarian was 4.22 µM; in the assay on UACC-62 melanoma it was 3.57 µM; with MOLT-4 leukemia, over 100 µM; with MCF7 breast, 3.77 µM; in the assay on TK-10 renal it was 6.65 µM; in the assay with M14 melanoma, 9.33 µM. Moreover, the TGI was 12.9 µM with K-562 leukemia, 3.75 µM with SN12C renal, 2.88 µM in the assay with UO-31 renal and 9.88 µM in the assay on T-47D breast.
For `CCCCCCC/C=C1\CCC(CN(C)C)C1=O` (stereo not given), the TGI in the assay on NCI/ADR-RES ovarian came out at 14.6 µM; in the assay on UACC-62 melanoma, 28.7 µM; in the assay with MOLT-4 leukemia, 7 µM; with MCF7 breast, 16.4 µM; in the assay on TK-10 renal, 16.5 µM; in the assay on M14 melanoma, 23.6 µM. For the same compound, the TGI with K-562 leukemia stood at 9.53 µM; in the assay on SN12C renal it was 17.5 µM; in the assay on UO-31 renal it was 29.1 µM; with T-47D breast, 26.7 µM.
Consider `C=C(C)[C@@H]1CC[C@]2(CN)CC[C@]3(C)[C@H](CC[C@@H]4[C@@]5(C)CCC(N)[C@@](C)(CO)[C@@H]5CC[C@]43C)[C@@H]12` (stereo not given in full), for which the GI50 is 2.6 µM with NCI/ADR-RES ovarian; 1.85 µM in the assay on UACC-62 melanoma; 1.7 µM in the assay with MOLT-4 leukemia; 1.53 µM in the assay with MCF7 breast; 1.75 µM in the assay with TK-10 renal; 1.81 µM in the assay on M14 melanoma. Moreover, the GI50 in the assay on K-562 leukemia is 0.325 µM; in the assay with SN12C renal it was 1.74 µM; with UO-31 renal, 1.6 µM; in the assay with T-47D breast, 1.93 µM. Further, the TGI with NCI/ADR-RES ovarian came out at 6.59 µM; in the assay with UACC-62 melanoma it was 3.33 µM; in the assay with MOLT-4 leukemia, 3.58 µM; in the assay on MCF7 breast it was 3.2 µM; in the assay on TK-10 renal, 3.22 µM; with M14 melanoma, 3.32 µM. Moreover, the TGI in the assay with K-562 leukemia amounted to 1.06 µM; in the assay on SN12C renal it was 3.24 µM; with UO-31 renal, 2.96 µM; in the assay with T-47D breast, 3.84 µM.
Take `Cc1cc(C)c(O)c(CNCCCNCc2cc(C)cc(C)c2O)c1`: the GI50 is 2.17 µM in the assay on NCI/ADR-RES ovarian; 1.89 µM in the assay on UACC-62 melanoma; 3.14 µM in the assay with MOLT-4 leukemia; 1.67 µM in the assay with MCF7 breast; 6.16 µM in the assay on TK-10 renal; 1.8 µM in the assay on M14 melanoma. In addition, the GI50 in the assay with K-562 leukemia is 2.11 µM; with SN12C renal, 5.23 µM; in the assay with UO-31 renal, 2.22 µM; with T-47D breast it was 1.73 µM. Moreover, the TGI in the assay with NCI/ADR-RES ovarian was determined as 5.75 µM; in the assay on UACC-62 melanoma, 3.43 µM; in the assay on MOLT-4 leukemia it was 10.2 µM; with MCF7 breast it was 3.36 µM; in the assay with TK-10 renal it was 20.6 µM; in the assay with M14 melanoma, 3.55 µM. Also, the TGI with K-562 leukemia was 4.89 µM; in the assay on SN12C renal it was 18.8 µM; in the assay with UO-31 renal, 12.1 µM; in the assay with T-47D breast it was 4.29 µM.
As to `COc1ccc(C[C@H]2NC[C@H](O)[C@H]2OC(C)=O)cc1`, the TGI with NCI/ADR-RES ovarian turned out to be 0.369 µM; in the assay with UACC-62 melanoma, 0.225 µM; with MOLT-4 leukemia, 0.0642 µM; in the assay on MCF7 breast, 0.119 µM; with TK-10 renal, 0.397 µM; in the assay with M14 melanoma, 0.068 µM. Also, the TGI was determined as 0.11 µM with K-562 leukemia, 0.253 µM with SN12C renal, 0.181 µM in the assay with UO-31 renal and 0.754 µM in the assay on T-47D breast.
On to `CN1CCN(c2ccc(-c3cccc(CN4CCOCC4)c3)cc2NC(=O)c2c[nH]c(=O)cc2C(F)(F)F)CC1`, for which the GI50 with NCI/ADR-RES ovarian is over 100 µM; in the assay with UACC-62 melanoma, 60.1 µM; with MOLT-4 leukemia, 19 µM; in the assay with MCF7 breast, 33.1 µM; in the assay with TK-10 renal, 68.7 µM; with M14 melanoma, 17.2 µM. The GI50 with K-562 leukemia was 22.1 µM; with SN12C renal it was over 100 µM; with UO-31 renal, 49 µM; in the assay on T-47D breast, 31.3 µM. Moreover, the TGI is over 100 µM in the assay with NCI/ADR-RES ovarian; over 100 µM with UACC-62 melanoma; 64 µM in the assay on MOLT-4 leukemia; over 100 µM with MCF7 breast; over 100 µM with TK-10 renal; 36.9 µM with M14 melanoma. The TGI was 51 µM with K-562 leukemia, over 100 µM in the assay on SN12C renal, over 100 µM with UO-31 renal and over 100 µM with T-47D breast.
`N#CC(C(=O)O)C(c1c(Cl)cccc1Cl)C(C#N)C(=O)O` (stereo not given): the TGI in the assay on NCI/ADR-RES ovarian, in the assay on UACC-62 melanoma, in the assay with MOLT-4 leukemia, in the assay on MCF7 breast, in the assay on TK-10 renal and with M14 melanoma was over 100 µM throughout. Moreover, the TGI with K-562 leukemia, in the assay with SN12C renal, in the assay with UO-31 renal and with T-47D breast was over 100 µM each time.
Take `COC(=O)[C@H](Cc1cn(C)cn1)NC(=O)[C@@H](NC(=O)Nc1cc(C(F)(F)F)cc(C(F)(F)F)c1)C(C)(C)C`: the GI50 in the assay with NCI/ADR-RES ovarian, with UACC-62 melanoma, in the assay on MOLT-4 leukemia, in the assay on MCF7 breast, in the assay on TK-10 renal and in the assay on M14 melanoma was over 10 µM each time. Also, the GI50 in the assay with K-562 leukemia, in the assay on SN12C renal, in the assay on UO-31 renal and in the assay with T-47D breast was over 10 µM throughout. Besides, the TGI with NCI/ADR-RES ovarian, in the assay with UACC-62 melanoma, in the assay on MOLT-4 leukemia, in the assay on MCF7 breast, in the assay with TK-10 renal and with M14 melanoma was over 10 µM throughout. The TGI in the assay on K-562 leukemia, in the assay with SN12C renal, with UO-31 renal and with T-47D breast was over 10 µM throughout.

The record behind these values is PubChem BioAssay (NCI).
